Cc1c(OCC(F)(F)F)ccnc1CS(=O)c1nc2ccccc2[nH]1 (stereo unspecified)
solubility (mole fraction)
Details | in 2-butanone | in MIBK | in acetone | in ethyl acetate | in isobutyl acetate | in isopropanol | in n-butanol | in n-butyl acetate | in n-pentanol | in n-propanol
283.15 K | 0.00289 | 0.0013 | 0.00249 | 0.00137 | 0.000784 | 0.00082 | 0.0012 | 0.000987 | 0.00138 | 0.00166
288.15 K | 0.00349 | 0.00154 | – | 0.00164 | 0.000965 | 0.000922 | 0.00166 | 0.0012 | 0.00184 | 0.00206
290.15 K | – | – | 0.0031 | – | – | – | – | – | – | –
293.15 K | 0.00412 | 0.00183 | – | 0.002 | 0.00117 | 0.00124 | 0.00215 | 0.00144 | 0.00227 | 0.0026
297.15 K | – | – | 0.00395 | – | – | – | – | – | – | –
298.15 K | 0.00489 | 0.00216 | – | 0.00245 | 0.00136 | 0.00161 | 0.0027 | 0.00172 | 0.00281 | 0.00314
303.15 K | 0.00578 | 0.00255 | – | 0.00291 | 0.00161 | 0.00202 | 0.00336 | 0.00195 | 0.00344 | 0.00388
304.15 K | – | – | 0.00494 | – | – | – | – | – | – | –
308.15 K | 0.00697 | 0.00307 | – | 0.00343 | 0.00193 | 0.00261 | 0.00419 | 0.00232 | 0.00412 | 0.00468
311.15 K | – | – | 0.00626 | – | – | – | – | – | – | –
313.15 K | 0.0083 | 0.00362 | – | 0.00416 | 0.00228 | 0.00333 | 0.00515 | 0.00271 | 0.00518 | 0.00588
318.15 K | – | – | 0.00801 | 0.00469 | – | 0.00422 | – | – | – | –
